Among the data in PubChem BioAssay (NCI) are GI50 and TGI values, retold here.

Some test systems named below: COLO 205 colon; DLD-1 colon; HCT-116 colon; KM20L2 colon; LOX IMVI melanoma; RXF 393 renal; SK-MEL-2 melanoma; SN12C renal; SNB-78 CNS; DMS 114 small cell lung.
Holding throughout (assay): growth of human tumour cells (NCI), 48 h

Values joined by “and” are separate entries in the source; they are usually repeats but may differ in a detail not shown here. Equal entries are not always repeated.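 How tested: cells in 96-well plates exposed to compound for 48 hours at five concentrations. GI50 = concentration required for 50% inhibition of growth. TGI: total growth inhibition.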 A value given as a limit tells only on which side of the number the result lay.

With `CNC(P(=O)([O-])[O-])P(=O)([O-])[O-].N.N.[Pt+2]`, the GI50 in the assay with COLO 205 colon, with DLD-1 colon, in the assay on HCT-116 colon, in the assay on KM20L2 colon, with LOX IMVI melanoma and with RXF 393 renal was greater than 100 µM each time. For the same compound, the GI50 in the assay with SK-MEL-2 melanoma, in the assay on SN12C renal and in the assay with SNB-78 CNS was greater than 100 µM in each case. In addition, the TGI in the assay with COLO 205 colon, in the assay with DLD-1 colon, in the assay on HCT-116 colon, in the assay on KM20L2 colon, in the assay on LOX IMVI melanoma and in the assay with RXF 393 renal was greater than 100 µM throughout. In addition, the TGI in the assay on SK-MEL-2 melanoma, with SN12C renal and in the assay with SNB-78 CNS was greater than 100 µM in each case.
`CCc1cccc(C(C)C)c1NC(=O)C(=O)C(Cc1nc2ccccc2[nH]c1=O)C(=O)OC` (centres undefined): the TGI with COLO 205 colon is greater than 100 µM; in the assay on DLD-1 colon, greater than 100 µM; in the assay on DMS 114 small cell lung, 30.5 µM; in the assay with HCT-116 colon, greater than 100 µM; in the assay with KM20L2 colon, greater than 100 µM; in the assay with LOX IMVI melanoma, greater than 100 µM. In addition, the TGI in the assay on RXF 393 renal, in the assay with SK-MEL-2 melanoma and in the assay with SN12C renal was greater than 100 µM in each case.
As to `CC1=C(C)C(=O)c2c(cc3ccc4ccccc4n23)C1=O`, the TGI with COLO 205 colon, in the assay with DLD-1 colon, in the assay with DMS 114 small cell lung, with LOX IMVI melanoma, in the assay with RXF 393 renal and in the assay with SN12C renal was greater than 100 µM throughout. Further, the TGI in the assay on SNB-78 CNS is greater than 100 µM.
Regarding `COc1ccc(C(=O)/C(Br)=C/C(=O)O)cc1`, the GI50 was 15.1 µM in the assay with COLO 205 colon; 25.9 µM and 25.4 µM with HCT-116 colon; 18.1 µM with LOX IMVI melanoma; 6.8 µM and 15.1 µM in the assay on RXF 393 renal; 53.7 µM in the assay on SN12C renal. The TGI in the assay with COLO 205 colon was 34.4 µM and 54.2 µM; in the assay with DLD-1 colon, 73.5 µM; in the assay with DMS 114 small cell lung it was 114 µM; in the assay with HCT-116 colon, 81.3 µM and 65.8 µM; in the assay with KM20L2 colon, 185 µM; in the assay on LOX IMVI melanoma, 53.2 µM and 53 µM. The TGI with RXF 393 renal was 19.4 µM and 50 µM; in the assay on SK-MEL-2 melanoma, 29.3 µM and 32 µM; in the assay on SN12C renal, 228 µM and 183 µM.
Take `CN1CC[C@@H](c2c(O)cc(O)c3c(=O)cc(-c4ccccc4Cl)oc23)[C@@H](O)C1`: the GI50 was 0.0917 µM in the assay on COLO 205 colon; 0.0338 µM and 0.0258 µM in the assay on HCT-116 colon; 0.0289 µM in the assay with LOX IMVI melanoma; 0.0481 µM and 0.0218 µM and 0.0196 µM with RXF 393 renal; 0.124 µM and 0.071 µM with SK-MEL-2 melanoma; 0.213 µM in the assay on SN12C renal. Besides, the TGI in the assay with COLO 205 colon is 0.223 µM and 0.116 µM; with DLD-1 colon, greater than 100 µM; with DMS 114 small cell lung it was 0.334 µM; in the assay with HCT-116 colon it was 27.5 µM; with LOX IMVI melanoma, greater than 100 µM; with RXF 393 renal, 0.0892 µM and 0.0495 µM and 0.0428 µM. The TGI in the assay on SK-MEL-2 melanoma is 0.215 µM and 0.209 µM and 0.101 µM; with SN12C renal it was 13.2 µM; in the assay with SNB-78 CNS it was greater than 17.6 µM.
`CC(=O)O/C=C(/C=C/OC(C)=O)C(C/C=C(\C)C#CC=C(C)C)OC(C)=O` (centres undefined): the TGI in the assay with COLO 205 colon is 68.5 µM; with DLD-1 colon, greater than 100 µM; with DMS 114 small cell lung, 38.5 µM; in the assay on HCT-116 colon, 39 µM; with KM20L2 colon, greater than 100 µM; in the assay with LOX IMVI melanoma, 70.7 µM. The TGI was greater than 100 µM with SK-MEL-2 melanoma, greater than 100 µM in the assay on SN12C renal and 72.2 µM in the assay with SNB-78 CNS.
`COc1cc([C@H]2c3cc4c(cc3O[C@@]3(O)COC(=O)[C@@H]23)OCO4)cc(OC)c1OC`: the TGI in the assay on COLO 205 colon, in the assay on DLD-1 colon, in the assay on DMS 114 small cell lung, in the assay with HCT-116 colon, in the assay on KM20L2 colon and in the assay with LOX IMVI melanoma was greater than 100 µM in each case. For the same compound, the TGI with SK-MEL-2 melanoma, with SN12C renal and in the assay with SNB-78 CNS was greater than 100 µM throughout.
As to `COc1cc(CCc2ccc(OCCN(C)C)cc2)cc(OC)c1OC`, the TGI with COLO 205 colon was 38.9 µM; with DLD-1 colon it was greater than 100 µM; in the assay on DMS 114 small cell lung, greater than 100 µM; with HCT-116 colon, greater than 100 µM; in the assay on KM20L2 colon, greater than 100 µM; in the assay with LOX IMVI melanoma, greater than 100 µM. Moreover, the TGI in the assay on RXF 393 renal, with SN12C renal and in the assay with SNB-78 CNS was greater than 100 µM throughout.
As for `COC(=O)C1CC2(CC3=C1CCCC3)OCCO2` (centres undefined), the TGI in the assay on COLO 205 colon, in the assay on DLD-1 colon, with DMS 114 small cell lung, in the assay on HCT-116 colon, in the assay with LOX IMVI melanoma and in the assay with RXF 393 renal was greater than 100 µM in each case. For the same compound, the TGI in the assay with SK-MEL-2 melanoma, in the assay with SN12C renal and in the assay with SNB-78 CNS was greater than 100 µM throughout.
For the compound `CN1CCN(CN2C(=O)C3C4C=CC(C3C2=O)C2C3C(=O)N(CN5CCN(C)CC5)C(=O)C3C42)CC1` (centres undefined), the TGI in the assay with COLO 205 colon is 33.2 µM and 34.5 µM and 35.3 µM; with DLD-1 colon, 49.7 µM and 41 µM and 52.4 µM; in the assay on DMS 114 small cell lung it was 36.8 µM and 37.7 µM and 35.5 µM; in the assay on HCT-116 colon, 33.4 µM and 36.4 µM and 27.3 µM; in the assay on KM20L2 colon, 56.8 µM and 40.9 µM and 63.4 µM; in the assay with LOX IMVI melanoma, 35.5 µM and 37.4 µM and 33.8 µM. Also, the TGI in the assay on RXF 393 renal was 41.4 µM and 34.7 µM and 36.2 µM; in the assay with SK-MEL-2 melanoma it was 40 µM and 35.6 µM and 30 µM; in the assay with SN12C renal, 43.7 µM and 41.9 µM and 52.8 µM.
As for `Nc1ccn(CCOC(=O)c2ccccc2)c(=O)n1`, the TGI in the assay on COLO 205 colon, in the assay with DLD-1 colon, in the assay on HCT-116 colon, in the assay on KM20L2 colon, in the assay with LOX IMVI melanoma and with RXF 393 renal was greater than 100 µM throughout. For the same compound, the TGI in the assay with SK-MEL-2 melanoma, in the assay with SN12C renal and with SNB-78 CNS was greater than 100 µM throughout.
`O=C(CNc1nncs1)NO`: the TGI with COLO 205 colon, with DLD-1 colon, in the assay on DMS 114 small cell lung, in the assay with HCT-116 colon, in the assay on KM20L2 colon and in the assay with RXF 393 renal was greater than 100 µM each time. Moreover, the TGI in the assay on SK-MEL-2 melanoma, in the assay with SN12C renal and with SNB-78 CNS was greater than 100 µM in each case.
In the case of `Nn1c(-c2ccccc2)nc2ccc(Br)cc2c1=O`, the TGI in the assay with COLO 205 colon, in the assay on DLD-1 colon, in the assay on DMS 114 small cell lung, with HCT-116 colon, with KM20L2 colon and in the assay with SK-MEL-2 melanoma was greater than 100 µM in each case. Moreover, the TGI with SN12C renal and in the assay with SNB-78 CNS was greater than 100 µM each time.
